Data as given in ChEMBL document CHEMBL1137623, “Synthesis and in-vitro biological activity of macrocyclic urea Chk1 inhibitors” (Bioorg Med Chem Lett, 2007).

What was measured:
[1] = test system: HeLa; assay: Antiproliferative activity against human HeLa cells by MTS assay; type: functional, cell-based
[2] = target: T1, Serine/threonine-protein kinase Chk1 (Homo sapiens, UniProt O14757); assay: Inhibition of Chk1 enzyme by radiometric assay
T1 sequence (O14757 whole entry): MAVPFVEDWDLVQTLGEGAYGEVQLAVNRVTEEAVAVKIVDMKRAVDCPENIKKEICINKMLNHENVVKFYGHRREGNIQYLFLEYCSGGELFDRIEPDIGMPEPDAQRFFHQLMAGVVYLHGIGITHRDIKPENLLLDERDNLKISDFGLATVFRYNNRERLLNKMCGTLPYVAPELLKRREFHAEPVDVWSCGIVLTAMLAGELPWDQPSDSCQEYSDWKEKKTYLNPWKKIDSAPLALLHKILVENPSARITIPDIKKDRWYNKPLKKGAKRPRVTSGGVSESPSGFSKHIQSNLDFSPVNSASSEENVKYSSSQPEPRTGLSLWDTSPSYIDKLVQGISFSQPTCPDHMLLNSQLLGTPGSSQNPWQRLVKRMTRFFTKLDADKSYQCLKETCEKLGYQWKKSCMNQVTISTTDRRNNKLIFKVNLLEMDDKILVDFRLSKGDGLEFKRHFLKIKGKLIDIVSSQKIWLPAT

[3] = test system: NCI-H1299; assay: Cell cycle arrest in human NCI-H1299 cells assessed as accumulation at G2/M phase by FACS; type: functional, cell-based

Row | Compound | EC50 [1] [nM] | IC50 [2] [nM] | EC50 [3] [nM] | IC50 [3] [nM]
1 | N#Cc1ncc2nc1OCCCCCOc1ccc(Cl)cc1NC(=O)N2 | 57600 | 11 | > 10000 | –
2 | CCOc1ccc2c(c1)NC(=O)Nc1cnc(C#N)c(n1)OCCCCCO2 | > 59300 | 55 | > 10000 | –
3 | N#Cc1ncc2nc1OC/C=C\COc1ccc(OCCCN3CCOCC3)cc1NC(=O)N2 | > 59300 | 4 | – | –
4 | N#Cc1ncc2nc1OC/C=C\COc1ccc(OCCCCN3CCOCC3)cc1NC(=O)N2 | 7560 | 4 | – | –
5 | N#Cc1ncc2nc1OCC/C=C\COc1ccc(Br)cc1NC(=O)N2 | 29400 | 12 | > 10000 | –
6 | N#Cc1ncc2nc1OCCCCCOc1ccc(OCCCN3CCOCC3)cc1NC(=O)N2 | 4030 | 7 | > 10000 | –
7 | N#Cc1ncc2nc1OC/C=C\COc1ccc(OCCCCCN3CCCOC3)cc1NC(=O)N2 | > 59300 | 2 | – | –
8 | N#Cc1ncc2nc1OCCCCOc1ccc(OCCCN3CCOCC3)cc1NC(=O)N2 | > 59300 | 2 | – | –
9 | N#Cc1ncc2nc1OCCCCOc1ccc(OCCCCN3CCOCC3)cc1NC(=O)N2 | > 59300 | 4 | – | –
10 | N#Cc1ncc2nc1OCCCCOc1ccc(OCCCCCN3CCCOC3)cc1NC(=O)N2 | > 59300 | 3 | – | –
11 | N#Cc1ncc2nc1OCCCCCOc1ccc(OCCCCN3CCOCC3)cc1NC(=O)N2 | – | 3 | – | –
12 | Cc1ccc2c(c1)NC(=O)Nc1cnc(C#N)c(n1)OCC/C=C\CO2 | > 59300 | 15 | > 10000 | –
13 | N#Cc1ncc2nc1OCC/C=C\COc1ccc(CCOC3CCCCO3)cc1NC(=O)N2 (stereo not drawn) | – | 108 | > 10000 | –
14 | N#Cc1ncc2nc1OCCCCCOc1ccc(OCCCCCN3CCOCC3)cc1NC(=O)N2 | 8870 | 3 | > 10000 | –
15 | CC(=O)Nc1ccc2c(c1)NC(=O)Nc1cnc(C#N)c(n1)OCCCCCO2 | – | 8 | – | –
16 | N#Cc1ncc2nc1OCCCCCOc1ccc(Br)cc1NC(=O)N2 | 52800 | 12 | > 10000 | –
17 | N#Cc1ncc2nc1OCCCCCOc1ccccc1NC(=O)N2 | > 59300 | 16 | > 10000 | –
18 | N#Cc1ncc2nc1OCC/C=C\COc1ccc(CCO)cc1NC(=O)N2 | – | 97 | > 10000 | –
19 | Cc1ccc2c(c1)NC(=O)Nc1cnc(C#N)c(n1)OCCCCCO2 | – | 8 | – | –
20 | N#Cc1ncc2nc1OCCCCCOc1ccc(CCO)cc1NC(=O)N2 | > 59300 | 39 | > 10000 | –
21 | N#Cc1ncc2nc1OCC/C=C\COc1ccc(CCCOC3CCCCO3)cc1NC(=O)N2 (stereo not drawn) | > 59300 | 91 | > 10000 | –

Row | Compound | EC50 [1] [nM] | IC50 [2] [nM] | EC50 [3] [nM] | IC50 [3] [nM]
22 | N#Cc1ncc2nc1OCCCCCOc1ccc(CCCO)cc1NC(=O)N2 | > 59300 | 24 | > 10000 | –
23 | N#Cc1ncc2nc1OCC/C=C\COc1ccc(CCCO)cc1NC(=O)N2 | > 59300 | 69 | > 10000 | –
24 | N#Cc1ncc2nc1OCC/C=C\COc1ccc(OCCOC3CCCCO3)cc1NC(=O)N2 (stereo not drawn) | 30900 | 19 | > 10000 | –
25 | N#Cc1ncc2nc1OCC/C=C\COc1ccc(O)cc1NC(=O)N2 | > 59300 | 34 | > 10000 | –
26 | COc1ccc2c(c1)NC(=O)Nc1cnc(C#N)c(n1)OCC/C=C\CO2 | > 59300 | 37 | > 10000 | –
27 | N#Cc1ncc2nc1OCC/C=C\COc1ccc(OCCO)cc1NC(=O)N2 | > 59300 | 13 | > 10000 | –
28 | CCOc1ccc2c(c1)NC(=O)Nc1cnc(C#N)c(n1)OCC/C=C\CO2 | > 59300 | 19 | > 10000 | –
29 | CC(C)(C)[Si](Oc1ccc2c(c1)NC(=O)Nc1cnc(C#N)c(n1)OCC/C=C\CO2)(c1ccccc1)c1ccccc1 | – | > 10000 | – | –
30 | N#Cc1ncc2nc1OCC/C=C\COc1ccc(OCCCCN3CCOCC3)cc1NC(=O)N2 | – | 6 | – | –
31 | N#Cc1ncc2nc1OCC/C=C\COc1ccc(OCCCCCN3CCOCC3)cc1NC(=O)N2 | 5270 | 5 | > 10000 | –
32 | COc1ccc2c(c1)NC(=O)Nc1cnc(C#N)c(n1)OCCCCCO2 | > 59300 | 25 | > 10000 | –
33 | CCOc1ccc(OCC)c(NC(=O)Nc2cnc(C#N)cn2)c1 | – | 31 | – | –
34 | COc1ccc(NC(C)=O)cc1NC(=O)Nc1cnc(C#N)cn1 | – | 22 | – | –
35 | N#Cc1ncc2nc1OCCCCOc1ccc(Cl)cc1NC(=O)N2 | > 59300 | – | > 10000 | –
36 | CN(C)CCOc1ccc2c(c1)NC(=O)Nc1cnc(C#N)c(n1)OCC/C=C\CO2 | 30400 | 15 | > 10000 | –
37 | N#Cc1ncc2nc1OCC/C=C\COc1ccccc1NC(=O)N2 | 40000 | 12 | > 10000 | –
38 | N#Cc1ncc2nc1OCC/C=C\COc1ccc(OCCCN3CCOCC3)cc1NC(=O)N2 | > 59300 | 5 | > 10000 | –
39 | CC(=O)Nc1ccc2c(c1)NC(=O)Nc1cnc(C#N)c(n1)OCC/C=C\CO2 | 39900 | 16 | – | > 10000
40 | N#Cc1ncc2nc1OCCCCCOc1ccc(OCCO)cc1NC(=O)N2 | > 59300 | 11 | > 10000 | –
41 | N#Cc1ncc2nc1OCC/C=C\COc1ccc(Cl)cc1NC(=O)N2 | 11900 | 10 | > 10000 | –
42 | N#Cc1ncc2nc1OC/C=C\COc1ccc(Cl)cc1NC(=O)N2 | > 59300 | 5 | > 10000 | –
